Columns and labels:
Experiment in all cases: In Silico Screening
[1] = target: T1, 4-hydroxy-3-methylbut-2-enyl diphosphate reductase (Escherichia coli (strain K12), UniProt P62623)
T1 sequence (P62623 whole entry): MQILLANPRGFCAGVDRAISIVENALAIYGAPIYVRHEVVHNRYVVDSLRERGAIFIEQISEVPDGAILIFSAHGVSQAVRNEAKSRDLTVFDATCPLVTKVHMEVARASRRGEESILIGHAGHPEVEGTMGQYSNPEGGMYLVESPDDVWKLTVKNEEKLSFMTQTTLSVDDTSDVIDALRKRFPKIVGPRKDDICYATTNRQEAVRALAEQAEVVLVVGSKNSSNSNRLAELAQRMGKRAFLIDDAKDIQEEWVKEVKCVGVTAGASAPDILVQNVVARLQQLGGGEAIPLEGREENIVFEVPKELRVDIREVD
From the text: (§1) In order to find new inhibitors, we carried out in silico screening of AaIspH and EcIspH using ZINC and National Cancer Institute (NCI) libraries and Glide docking, essentially as previously described.[Lindert et al., Chem. Biol. Drug Des., 81:742-748]

[2] = target: T2, 4-hydroxy-3-methylbut-2-enyl diphosphate reductase (Aquifex aeolicus (strain VF5), UniProt O67625)
T2 sequence (O67625 whole entry): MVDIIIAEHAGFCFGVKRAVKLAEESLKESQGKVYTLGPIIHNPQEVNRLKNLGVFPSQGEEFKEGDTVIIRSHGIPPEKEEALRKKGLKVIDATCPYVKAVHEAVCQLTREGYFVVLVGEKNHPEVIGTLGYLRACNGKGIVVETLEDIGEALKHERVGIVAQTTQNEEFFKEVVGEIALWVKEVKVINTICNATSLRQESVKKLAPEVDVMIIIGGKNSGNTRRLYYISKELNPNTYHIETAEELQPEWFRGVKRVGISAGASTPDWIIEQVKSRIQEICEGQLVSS
From the text: as §1

[3] = target: T3, 4-hydroxy-3-methylbut-2-enyl diphosphate reductase (Pseudomonas aeruginosa (strain ATCC 15692 / PAO1 / 1C / PRS 101 / LMG12228), UniProt Q9HVM7)
T3 sequence (Q9HVM7 whole entry): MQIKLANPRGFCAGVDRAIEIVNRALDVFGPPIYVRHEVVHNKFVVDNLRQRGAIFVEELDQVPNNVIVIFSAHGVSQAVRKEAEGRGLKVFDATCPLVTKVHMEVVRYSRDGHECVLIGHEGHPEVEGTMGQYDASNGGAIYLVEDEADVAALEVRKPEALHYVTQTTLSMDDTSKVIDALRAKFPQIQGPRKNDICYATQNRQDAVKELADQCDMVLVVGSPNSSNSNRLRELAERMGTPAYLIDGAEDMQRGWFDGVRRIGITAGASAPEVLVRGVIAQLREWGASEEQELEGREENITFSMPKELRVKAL
From the text: as §1

Compound | Ki [1] | Ki [2] | Ki [3]
Nc1ccc2c(c1)CC1(C(=O)NC(=O)NC1=O)C1CN(Cc3ccccc3)CCN21 (stereo not drawn) [8-Amino-3-benzyl-2,3,4,4 a-tetrahydro-1,2'H,6H-spiro[pyrazino[1,2-a]quinoline-5,5'-pyrimidine]-2',4',6'(1'H,3'H)-trione] | 3000 nM | 700 nM | 
CCN1CCN2c3ccc(N)cc3CC3(C(=O)NC(=O)NC3=O)C2C1 (stereo not drawn) [IspH inhibitor, 8] |  |  | 500 nM

Reference: BindingDB's records for doi:10.1002/cbic.201700052 (University of Illinois, 2017)
